Values of other authors, collected in patent US20080145318A1, “ATOMOXETINE FORMULATIONS AND ASSOCIATED METHODS” (priority 2006, published 2008).

Experiments:
[1] = molecular target: norepinephrine reuptake transporter (Homo sapiens, UniProt P23975); settings: relative to atomoxetine, in words
other receptor systems = settings: in words
serotonin reuptake = serotonin reuptake (Homo sapiens, UniProt P31645); settings: in words
serotonin reuptake, sequence (P31645 whole entry): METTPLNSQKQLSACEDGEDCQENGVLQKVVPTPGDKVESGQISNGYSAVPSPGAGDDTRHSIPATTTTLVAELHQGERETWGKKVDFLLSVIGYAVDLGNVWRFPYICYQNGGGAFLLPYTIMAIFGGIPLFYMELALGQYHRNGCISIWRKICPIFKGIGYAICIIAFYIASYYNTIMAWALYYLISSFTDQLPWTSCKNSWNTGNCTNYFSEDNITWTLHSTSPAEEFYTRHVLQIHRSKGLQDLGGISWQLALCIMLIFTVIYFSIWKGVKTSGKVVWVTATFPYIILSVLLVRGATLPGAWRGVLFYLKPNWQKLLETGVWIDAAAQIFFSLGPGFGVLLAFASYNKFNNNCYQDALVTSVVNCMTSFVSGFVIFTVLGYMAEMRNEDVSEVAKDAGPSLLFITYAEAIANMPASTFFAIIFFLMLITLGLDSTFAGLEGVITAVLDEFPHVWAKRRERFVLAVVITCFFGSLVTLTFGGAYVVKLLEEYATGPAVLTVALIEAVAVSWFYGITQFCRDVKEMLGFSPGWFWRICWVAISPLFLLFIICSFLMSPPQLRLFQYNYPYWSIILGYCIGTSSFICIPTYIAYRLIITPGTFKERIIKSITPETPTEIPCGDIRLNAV

norepinephrine reuptake transporter, sequence (P23975 whole entry): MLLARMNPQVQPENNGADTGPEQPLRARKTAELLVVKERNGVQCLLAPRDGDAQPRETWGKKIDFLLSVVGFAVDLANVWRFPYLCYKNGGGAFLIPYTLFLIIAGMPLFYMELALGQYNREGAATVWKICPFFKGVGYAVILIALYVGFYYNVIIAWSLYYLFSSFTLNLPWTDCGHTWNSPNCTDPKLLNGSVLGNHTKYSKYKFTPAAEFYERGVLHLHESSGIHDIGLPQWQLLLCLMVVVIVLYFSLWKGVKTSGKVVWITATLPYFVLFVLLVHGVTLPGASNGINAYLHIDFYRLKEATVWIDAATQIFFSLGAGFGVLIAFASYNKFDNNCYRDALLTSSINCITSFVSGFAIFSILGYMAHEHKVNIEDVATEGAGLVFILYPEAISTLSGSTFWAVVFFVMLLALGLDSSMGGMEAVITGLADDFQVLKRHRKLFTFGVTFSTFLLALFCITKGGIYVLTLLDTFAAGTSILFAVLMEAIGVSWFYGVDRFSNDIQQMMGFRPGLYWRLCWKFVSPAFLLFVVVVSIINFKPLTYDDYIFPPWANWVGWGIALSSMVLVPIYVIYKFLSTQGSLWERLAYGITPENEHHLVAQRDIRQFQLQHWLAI

For CNCCC(Oc1ccccc1C)c1ccccc1 (single isomer, unassigned; (-)) [atomoxetine, (−)-N-methyl-3-phenyl-3-(o-tolyloxy)-propylamine], the plasma half-life (individuals having normal activity in the CYP2D6 pathway) is listed as “about 5 hours” and the half-life (individuals having reduced activity in the CYP2D6 pathway (poor metabolizers)) is listed as “about 24 hours”.
For Cc1cc(O)ccc1OC(CCN)c1ccccc1 (centres unmarked) [4H-NDA, N-desmethyl-4-hydroxyatomoxetine], the “inhibitory activity to the norepinephrine reuptake transporter compared to atomoxetine” value [1] is listed as “less active” and the “affinity to other receptor systems” value (other receptor systems) is listed as “little affinity”.
In the case of CNCCC(Oc1ccc(O)cc1C)c1ccccc1 (centres unmarked) [4HA, 4-hydroxyatomoxetine], the “serotonin reuptake inhibitor activity” value (serotonin reuptake) is given as “pharmacologically active” and the “affinity to other receptor systems” value (other receptor systems) is given as “little affinity”.
For Cc1ccccc1OC(CCN)c1ccccc1 (centres unmarked) [NDA, N-desmethylatomoxetine], the “inhibitory activity to the norepinephrine reuptake transporter compared to atomoxetine” value [1] is given as “less active” and the “affinity to other receptor systems” value (other receptor systems) is given as “little affinity”.
